Calls of active or inactive are those of the source.
Tests used:
[1] = biological target: NAD-dependent protein deacylase sirtuin-5, mitochondrial (Homo sapiens, UniProt Q9NXA8); test: blockers of sirtuin-5 peptide desuccinylation – biochemical, fluorescence imaging, cherry-pick, set 6, dose response (AID 720597)
[2] = viability loss in A549 lung cancer cells – cell-based, CellTiter-Glo luminescence, dry powder, set 3, cytotoxicity control, dose response (AID 743146); format: functional
[3] = viability reduction in hepatoma cells – cell-based, ATP luminescence, dry powder, Set4, cytotoxicity control, dose response (AID 743143); format: functional; conditions: HepG2
Protein Tat = Protein Tat (Human immunodeficiency virus type 1 group M subtype B (isolate HXB2)(HIV-1), UniProt P04608); format: functional;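 also: tat binding to TAR RNA read out by fluorescence polarization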
[4] = biological target: Tyrosine-protein phosphatase non-receptor type 5 (Homo sapiens, UniProt P54829); test: PTPN5 enzyme inhibition – biochemical, fluorescence intensity, uHTS hits, confirmation (AID 602372); format: functional; conditions: read-out: IC50_Mean
[5] = biological target: T1, Carboxy-terminal domain RNA polymerase II polypeptide A small phosphatase 1 (Homo sapiens, UniProt Q9GZU7); test: CTDSP1 inhibitors, concentration-response, biochemical, absorbance readout, ultra-high-throughput screen actives (AID 540297); format: functional
T1 sequence (Q9GZU7 whole entry): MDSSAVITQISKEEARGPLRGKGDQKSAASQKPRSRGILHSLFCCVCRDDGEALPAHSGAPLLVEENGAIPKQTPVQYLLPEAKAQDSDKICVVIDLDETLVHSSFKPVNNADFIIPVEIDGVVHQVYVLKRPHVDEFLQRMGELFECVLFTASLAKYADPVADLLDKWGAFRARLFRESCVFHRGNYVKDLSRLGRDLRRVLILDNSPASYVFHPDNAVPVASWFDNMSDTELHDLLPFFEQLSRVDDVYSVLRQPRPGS

[6] = biological target: Bifunctional protein GlmU (Mycobacterium tuberculosis, UniProt P9WMN3); test: Inhibitors of Mycobacterial Glucosamine-1-phosphate acetyl transferase (GlmU). Secondary screen.; set-up: species or system Mycobacterium tuberculosis H37Rv
[7] = biological target: Dual specificity protein phosphatase 3 (Homo sapiens, UniProt P51452); test: VHR phosphatase inhibition, dose response, selectivity assay for STEP inhibitor project, biochemical (AID 602374); format: functional; conditions: read-out: IC50_Mean
[8] = biological target: Tyrosine-protein phosphatase non-receptor type 11 (Homo sapiens, UniProt Q06124); test: PTPN11 enzyme inhibitors – biochemical, selectivity assay for STEP inhibitor project, dose response (AID 602367); format: functional; conditions: read-out: IC50_Mean
[9] = biological target: T2, Tyrosine-protein phosphatase non-receptor type 22 (Homo sapiens, UniProt Q9Y2R2); test: lymphoid phosphatase LYP inhibitors – biochemical, selectivity assay for STEP inhibitor project, dose response (AID 624241); format: functional
T2 sequence (Q9Y2R2 whole entry): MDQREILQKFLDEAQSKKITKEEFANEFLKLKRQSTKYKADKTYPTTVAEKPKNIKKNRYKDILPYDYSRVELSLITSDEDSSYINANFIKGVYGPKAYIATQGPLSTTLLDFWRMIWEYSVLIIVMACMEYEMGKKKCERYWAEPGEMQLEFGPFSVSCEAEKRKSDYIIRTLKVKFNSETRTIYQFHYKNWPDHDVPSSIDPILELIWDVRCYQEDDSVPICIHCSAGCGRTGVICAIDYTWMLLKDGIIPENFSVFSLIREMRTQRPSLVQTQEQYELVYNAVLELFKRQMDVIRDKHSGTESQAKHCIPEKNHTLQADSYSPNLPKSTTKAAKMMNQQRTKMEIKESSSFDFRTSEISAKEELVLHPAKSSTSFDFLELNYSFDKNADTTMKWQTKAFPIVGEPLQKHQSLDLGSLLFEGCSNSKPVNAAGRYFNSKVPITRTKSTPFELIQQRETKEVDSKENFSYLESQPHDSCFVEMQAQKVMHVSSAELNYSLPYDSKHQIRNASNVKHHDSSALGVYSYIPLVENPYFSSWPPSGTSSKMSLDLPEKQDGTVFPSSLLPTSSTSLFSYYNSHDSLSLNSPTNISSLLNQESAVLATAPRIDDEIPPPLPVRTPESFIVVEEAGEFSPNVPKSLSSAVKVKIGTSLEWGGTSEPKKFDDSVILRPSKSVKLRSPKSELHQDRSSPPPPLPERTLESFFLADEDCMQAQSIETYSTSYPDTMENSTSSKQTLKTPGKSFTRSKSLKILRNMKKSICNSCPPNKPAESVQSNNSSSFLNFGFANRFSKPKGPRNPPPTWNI

[10] = biological target: T3, Low molecular weight phosphotyrosine protein phosphatase (Homo sapiens, UniProt P24666); test: inhibition of human LMPTP enzyme activity – biochemical, absorbance, pNPP substrate, LMPTP-A isoform, set 2, orthogonal assay, dose response (AID 743308); format: functional
T3 sequence (P24666 whole entry): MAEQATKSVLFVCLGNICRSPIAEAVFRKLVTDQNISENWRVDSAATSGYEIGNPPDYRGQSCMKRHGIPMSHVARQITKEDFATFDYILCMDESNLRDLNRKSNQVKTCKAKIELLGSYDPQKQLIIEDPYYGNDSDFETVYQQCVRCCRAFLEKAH

[11] = biological target: T3, Low molecular weight phosphotyrosine protein phosphatase; test: inhibition of LMPTP-A enzymatic activity – biochemical, OMFP substrate, fluorescence intensity, set 2, dose response (AID 743307); format: functional
cells = conditions: HEK293
[12] = viability loss in HepG2 liver cells – cell-based, ATP luminescence, cherry-pick, set 6, cytotoxicity control, dose response (AID 1053125); format: functional
[13] = cytotoxicity toward HCT116 cells – cell-based, CellTiter-Glo luminescence, IC50, dose response (AID 1117332); format: functional; conditions: HCT-116
[14] = cytotoxicity toward Colo320 cells – cell-based, CellTiter-Glo luminescence, IC50, dose response (AID 1117334); format: functional; conditions: COLO 320
[15] = HCT116 cell viability decrease, GSK3B pretreatment – CellTiter-Glo, IC50, dose response (AID 1117339); format: functional; conditions: HCT-116
[16] = cytotoxicity toward HT-29 cells – cell-based, CellTiter-Glo luminescence, IC50, dose response (AID 1117330); format: functional
[17] = RKO cell viability reduction, dose response, CellTiter-Glo luminescence (AID 1117322); format: functional
[18] = SNU-C1 cell viability reduction, dose response, CellTiter-Glo luminescence (AID 1117323); format: functional, cell-based
[19] = Reduced DLD-1 viability, concentration-response, CellTiter-Glo luminescence (AID 1117352); format: functional
[20] = CellTiter-Glo luminescence survival assay, SW480 colon tumor line, concentration-response curve, half-maximal inhibitory concentration (AID 1117338); format: functional
[21] = biological target: E3 ubiquitin-protein ligase Mdm2 (Homo sapiens, UniProt Q00987); test: MDM2-luc reporter signal enhancers, multi-concentration potency testing, MDM2 ubiquitin-protein ligase inhibitor program, whole-cell format, luminescence detection, 384-well microplate (AID 1394); format: functional;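 also: MDM2 E3 inhibitors raise luminescence so EC50 is for signal enhancement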
Chain of E3 ubiquitin-protein ligase Mdm2 (Q00987 whole entry): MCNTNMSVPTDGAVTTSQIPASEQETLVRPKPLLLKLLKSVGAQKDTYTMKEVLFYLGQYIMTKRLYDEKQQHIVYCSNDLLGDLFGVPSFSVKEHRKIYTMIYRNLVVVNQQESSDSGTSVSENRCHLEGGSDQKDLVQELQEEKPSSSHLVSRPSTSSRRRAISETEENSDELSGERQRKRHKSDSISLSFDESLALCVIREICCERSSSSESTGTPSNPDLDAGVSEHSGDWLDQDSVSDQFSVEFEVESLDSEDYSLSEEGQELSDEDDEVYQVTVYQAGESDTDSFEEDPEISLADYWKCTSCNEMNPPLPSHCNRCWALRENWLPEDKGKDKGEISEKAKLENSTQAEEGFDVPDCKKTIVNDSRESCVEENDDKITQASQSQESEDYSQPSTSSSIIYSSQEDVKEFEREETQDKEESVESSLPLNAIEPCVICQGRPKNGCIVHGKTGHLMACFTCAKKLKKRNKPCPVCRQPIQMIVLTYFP

Chain of Protein Tat (P04608 whole entry): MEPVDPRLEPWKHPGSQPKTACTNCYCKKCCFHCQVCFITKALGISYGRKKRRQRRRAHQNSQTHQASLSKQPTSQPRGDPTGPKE
Chain of Tyrosine-protein phosphatase non-receptor type 11 (Q06124 whole entry): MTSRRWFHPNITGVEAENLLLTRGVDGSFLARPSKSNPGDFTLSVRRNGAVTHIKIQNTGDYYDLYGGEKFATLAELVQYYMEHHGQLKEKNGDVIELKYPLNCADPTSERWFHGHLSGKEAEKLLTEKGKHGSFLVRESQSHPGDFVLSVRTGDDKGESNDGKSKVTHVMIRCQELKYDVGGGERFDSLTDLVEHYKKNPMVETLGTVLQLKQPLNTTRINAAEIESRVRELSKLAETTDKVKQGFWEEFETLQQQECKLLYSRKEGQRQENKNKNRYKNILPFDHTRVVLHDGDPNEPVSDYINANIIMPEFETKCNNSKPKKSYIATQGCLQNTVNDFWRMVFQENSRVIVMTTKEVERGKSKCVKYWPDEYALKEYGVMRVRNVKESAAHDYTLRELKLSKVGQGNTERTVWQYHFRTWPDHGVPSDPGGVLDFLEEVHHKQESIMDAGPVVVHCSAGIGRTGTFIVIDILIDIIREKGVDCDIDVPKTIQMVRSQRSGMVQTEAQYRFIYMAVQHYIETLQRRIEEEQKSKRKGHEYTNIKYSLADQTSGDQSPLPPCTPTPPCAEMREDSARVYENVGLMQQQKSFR
Chain of Bifunctional protein GlmU (P9WMN3 whole entry): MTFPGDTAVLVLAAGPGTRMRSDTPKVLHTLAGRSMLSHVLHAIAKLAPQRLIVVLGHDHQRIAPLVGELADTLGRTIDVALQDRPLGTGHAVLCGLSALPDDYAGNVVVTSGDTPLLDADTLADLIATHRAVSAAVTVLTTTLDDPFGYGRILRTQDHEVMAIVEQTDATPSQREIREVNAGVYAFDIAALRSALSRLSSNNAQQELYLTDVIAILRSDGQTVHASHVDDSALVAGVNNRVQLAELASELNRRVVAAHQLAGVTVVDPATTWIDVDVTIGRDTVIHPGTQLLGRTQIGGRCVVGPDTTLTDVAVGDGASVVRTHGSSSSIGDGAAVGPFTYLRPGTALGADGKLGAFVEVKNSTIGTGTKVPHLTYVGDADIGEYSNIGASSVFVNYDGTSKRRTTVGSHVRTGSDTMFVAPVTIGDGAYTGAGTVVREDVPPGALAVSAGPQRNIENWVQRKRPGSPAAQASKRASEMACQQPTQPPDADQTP
Chain of Tyrosine-protein phosphatase non-receptor type 5 (P54829 whole entry, the tested form may be a part): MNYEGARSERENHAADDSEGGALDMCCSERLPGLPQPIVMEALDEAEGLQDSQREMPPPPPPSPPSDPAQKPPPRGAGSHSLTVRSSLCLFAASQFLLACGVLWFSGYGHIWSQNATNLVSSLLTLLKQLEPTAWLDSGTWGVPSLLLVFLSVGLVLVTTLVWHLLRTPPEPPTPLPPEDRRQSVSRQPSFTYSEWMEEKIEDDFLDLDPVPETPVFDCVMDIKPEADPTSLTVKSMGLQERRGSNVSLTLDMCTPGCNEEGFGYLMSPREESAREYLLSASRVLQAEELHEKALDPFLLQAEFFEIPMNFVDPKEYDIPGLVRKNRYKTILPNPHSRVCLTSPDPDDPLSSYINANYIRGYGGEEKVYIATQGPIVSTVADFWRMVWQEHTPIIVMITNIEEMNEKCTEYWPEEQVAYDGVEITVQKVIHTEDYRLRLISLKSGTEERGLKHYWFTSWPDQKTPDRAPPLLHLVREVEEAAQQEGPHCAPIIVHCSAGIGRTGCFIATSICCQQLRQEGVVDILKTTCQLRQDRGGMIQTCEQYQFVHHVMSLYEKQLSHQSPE
Chain of Dual specificity protein phosphatase 3 (P51452 whole entry): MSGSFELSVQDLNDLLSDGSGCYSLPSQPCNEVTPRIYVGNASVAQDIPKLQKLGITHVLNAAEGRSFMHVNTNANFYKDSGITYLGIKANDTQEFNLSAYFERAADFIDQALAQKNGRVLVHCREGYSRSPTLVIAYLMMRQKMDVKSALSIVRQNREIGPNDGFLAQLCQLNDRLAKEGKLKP
Chain of NAD-dependent protein deacylase sirtuin-5, mitochondrial (Q9NXA8 whole entry): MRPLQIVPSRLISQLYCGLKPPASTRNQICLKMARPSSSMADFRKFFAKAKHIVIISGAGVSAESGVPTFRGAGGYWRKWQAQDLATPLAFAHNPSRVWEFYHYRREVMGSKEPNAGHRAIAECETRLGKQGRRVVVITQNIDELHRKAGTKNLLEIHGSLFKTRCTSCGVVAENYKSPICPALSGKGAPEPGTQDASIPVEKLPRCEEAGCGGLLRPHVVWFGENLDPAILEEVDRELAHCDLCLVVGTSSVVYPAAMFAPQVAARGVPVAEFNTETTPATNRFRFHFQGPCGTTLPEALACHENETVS

Cc1noc(C)c1NC(=O)Nc1ccc2c(c1)C(=O)N([C@H](C)CO)C[C@H](C)[C@@H](CN(C)Cc1ccc(C(F)(F)F)cc1)OCCCC[C@@H](C)O2
AC50 [1]: > 30 µM (inactive)

COc1cc(C(=O)NCCC(=O)NC2CCCc3ccccc32)cc(OC)c1OC (stereo not drawn)
AC50 [2]: 26.7 µM (active)
AC50 [3]: 21.7 µM (active)

Cc1c(C)n(C(=O)CSc2nc3ccccc3[nH]2)c2ccccc12
IC50 (Protein Tat): > 100 µM (active)
IC50 [4]: 9.91 µM (active)
IC50 [5]: 3.37 µM (active)
IC50 [6]: 38.2 µM (active)
IC50 [7]: 1.81 µM (active)
IC50 [8]: 0.603 µM (active)
IC50 [9]: 8.33 µM (active)

c1ccc(-c2cc(NCCN3CCOCC3)c3ccccc3n2)cc1
IC50 [10]: 3.28 µM (active)
IC50 [11]: 2.13 µM (active)

Cc1c(C(=O)NCc2cccc(C(F)(F)F)c2)sc(=O)n1Cc1ccc(C(=O)N(C)C)cc1
AC50 (cells): > 52 µM (inactive)
AC50 [12]: > 52 µM (inactive)

O=C(OCCO)c1ccccc1O
IC50 [13]: > 20 µM (inactive)
IC50 [14]: > 20 µM (inactive)
IC50 [15]: > 20 µM (inactive)
IC50 [16]: > 20 µM (inactive)
IC50 [17]: > 20 µM (inactive)
IC50 [18]: > 20 µM (inactive)
IC50 [19]: > 20 µM (inactive)
IC50 [20]: > 20 µM (inactive)

COc1ccc(-c2nsc(SCC(=O)Nc3ccc4c(c3)OCO4)n2)cc1
EC50 [21]: 0.19 µM (not active)

Source: ChEMBL document CHEMBL1201862, “PubChem BioAssay data set” (2004)
